Earlier results, collected in patent US20260198506A1, “Broad-Spectrum Organic Fungicide & Bactericide” (Ecolution.AG LLC, priority 2020, published 2026).

Test system: Gram-positive bacteria
Conditions: due to outer cell membrane impermeability of Gram-negatives

For `O=C(O)C1=C[C@@H](O)[C@@H](O)[C@H](O)C1` [shikimic acid], the antibacterial activity spectrum is listed as “active only against Gram-positive bacteria”.
